According to USRE37781E1, “Substituted cyclic carbonyls and derivatives thereof useful as retroviral protease inhibitors” (DuPont Pharmaceuticals Company, priority 1991, dated 2002):
Where two headings read alike, the source gives them in different places.

Experiments:
HIV protease = target: T1, HIV protease (Human immunodeficiency virus type 1 group M subtype B, UniProt P04585); test: biochemical; parameters: species or system HIV-1
T1 construct: plasmid containing HIV protease under the control of an inducible T7 promoter; made in house; host or cells: E. coli (inclusion bodies, T7 promoter)
Protocol: HIV Protease Inhibition Assay—Spectroscopic Method
Inclusion bodies were solubilized in 8M urea, 50 mM tris pH 8.0. Protease activity was recovered by dilution 20-fold into buffer containing 50 mM sodium acetate pH 5.5, 1 mM EDTA, 10% glycerol and 5% ethylene glycol. Enzyme was used at a final concentration of 1.0-10 ug/ml.
Stock solutions of 10 mM were prepared in DMSO.
All further dilutions were done in DMSO.

HIV-1 (RF) in MT-2 cells = test: microbe, parasite or virus in culture; format: cell-based
Method in brief: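 HIV-1 laboratory strains (RF, MN, IIIB) grown in H9 cells in RPMI 1640 with 5% FCS; infections in MT-2 cells. Viral RNA quantified by hybridization with biotinylated gag/pol capture probes on streptavidin plates and alkaline phosphatase-conjugated reporter probes; BH10 gag-pol in vitro transcripts serve as RNA standards.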

[1] = target: single-chain tethered dimer of HIV protease (Human immunodeficiency virus 1, UniProt P04585); test: biochemical; format: biochemical; parameters: fused on or other part: A second copy of the same protease unit is joined to the first by a short peptide tether, giving one polypeptide; conditions: read-out: HPLC K1, Table 2d
[2] = Human immunodeficiency virus 1, MT2, 24 h, Table 1d, upper part, read-out: IC90
[3] = Human immunodeficiency virus 1, MT2, Table 1e, read-out: IC90
[4] = Table 1d, upper part, read-out: Ki
[5] = Human immunodeficiency virus 1, MT2, Table 1c, read-out: IC90
[6] = Human immunodeficiency virus 1, MT2, 48 h, Table 2d, class symbols, read-out: IC90
[7] = HIV protease inhibition, HPLC method
[8] = Human immunodeficiency virus 1, MT2, 48 h, Table 2d, HIV RNA assay, read-out: IC90

Compound CC(C)=CCCC(C)=CCN1C(=O)N(CC=C(C)CCC=C(C)C)C(Cc2ccccc2)C(O)C(O)C1Cc1ccccc1 (stereo not drawn) [Example 1K] has a Ki (HIV protease; Table 1a, read-out: Ki) of over 1 µM.

Compound O=C1OC2C(O1)C(Cc1ccccc1)N(CC1CC1)C(=O)N(CC1CC1)C2Cc1ccccc1 (stereo not drawn) [Example 7G] has a Ki (HIV protease; Ki) of 0.01 to 1 µM and an IC90 (HIV-1 (RF) in MT-2 cells; [2]) of under 10 µg/mL.

With C=CCN1C(=O)N(CC=C(C)C)C(Cc2ccccc2)C(O)C(O)C1Cc1ccccc1 (stereo not drawn) [Example 1AT] the Ki (HIV protease; Table 1a, read-out: Ki) was under 0.01 µM.

With CC(=O)OC1C(Cc2ccccc2)N(Cc2ccccc2)C(=O)N2C(Cc3ccccc3)C12 (stereo not drawn) [Example 21B] the Ki (HIV protease; Table 2j, read-out: Ki) was over 1 µM and the IC90 (HIV-1 (RF) in MT-2 cells; Table 2j) was “++/+ (The ++/+ is used in the cases where an IC90 was determined to be >50 μg/mL)”.

In the case of NC(=O)c1cccc(CN2C(=O)N(Cc3cccc(C(N)=O)c3)C(Cc3ccccc3)C(O)C2CCc2ccccc2)c1 (stereo not drawn) [Example 8AP], the Ki (HIV protease; Table 1e, read-out: Ki) is reported as over 1 µM and the IC90 (HIV-1 (RF) in MT-2 cells; [3]) is reported as over 100 µg/mL.

For N#Cc1cccc(CN2C(=O)N(Cc3cccc(C#N)c3)[C@H](Cc3ccccc3)[C@H](O)C2CCc2ccccc2)c1 (stereo partly drawn) [Example 8O], the Ki (HIV protease; Ki) was 0.01 to 1 µM and the IC90 (HIV-1 (RF) in MT-2 cells; Table 1e) was “+++ (+++=<10 μg/mL)”.

With O=C1NC(Cc2ccccc2)C(O)C(O)C(Cc2ccccc2)N1 (stereo not drawn) [Example 1E] the Ki (HIV protease; Table 1a, read-out: Ki) was over 1 µM.

With O=C1N(Cc2cccc(O)c2)C(C(F)Cc2ccccc2)[C@@H](O)[C@@H](Cc2ccccc2)N1Cc1cccc(O)c1 (stereo partly drawn) [Example 8F] the Ki (HIV protease; Ki) was 0.01 to 1 µM and the IC90 (HIV-1 (RF) in MT-2 cells; [3]) was under 10 µg/mL.

In the case of CC(C)CCCC(C)CCN1C(=O)NC(Cc2ccccc2)C(O)C(O)C1Cc1ccccc1 (stereo not drawn) [Example 1Q], the Ki (HIV protease; Table 1a, read-out: Ki) is reported as 0.01 to 1 µM.

For O=C1N(Cc2ccc3ccccc3c2)[C@H](Cc2ccccc2)C[C@@H](O)[C@@H](Cc2ccccc2)N1Cc1ccc2ccccc2c1 [Example 7T], the Ki (HIV protease; [4]) was under 0.01 µM and the IC90 (HIV-1 (RF) in MT-2 cells; [2]) was over 100 µg/mL.

With CCCC1(OC)OC2C(O1)C(Cc1ccccc1)N(Cc1ccc3ccccc3c1)C(=O)N(Cc1ccc3ccccc3c1)C2Cc1ccccc1 (stereo not drawn) [Example 7S] the Ki (HIV protease; [4]) was over 1 µM and the IC90 (HIV-1 (RF) in MT-2 cells; [2]) was over 50 µg/mL.

In the case of C=CCN1C(=O)N(CC2CC2)C(Cc2ccccc2)C(O)C(O)C1Cc1ccccc1 (stereo not drawn) [Example 1AW], the Ki (HIV protease; Table 1a, read-out: Ki) is reported as under 0.01 µM.

For N#CN=C1N(Cc2cccc(C=O)c2)C(Cc2ccccc2)C(O)C(O)C(Cc2ccccc2)N1Cc1cccc(C=O)c1 (stereo not drawn) [Example 1CP], the Ki (HIV protease; Ki) was under 0.01 µM and the IC90 (HIV-1 (RF) in MT-2 cells; [5]) was under 10 µg/mL.

N#CN=C1N(Cc2ccc(C#N)cc2)C(Cc2ccccc2)C(O)C(O)C(Cc2ccccc2)N1Cc1ccc(C#N)cc1 (stereo not drawn) [Example 1CG] showed a Ki (HIV protease; Ki) of 0.01 to 1 µM and an IC90 (HIV-1 (RF) in MT-2 cells; [5]) of under 10 µg/mL.

With O=C1N(Cc2ccccc2)C(Cc2ccccc2)C(O)C2C(Cc3ccccc3)N12 (stereo not drawn) [Example 21D] the Ki (HIV protease; Table 2j, read-out: Ki) was over 1 µM and the IC90 (HIV-1 (RF) in MT-2 cells; Table 2j) was “++/+ (The ++/+ is used in the cases where an IC90 was determined to be >50 μg/mL)”.

For CC(C)C(NCCN1C(=O)N(CCNC(C(=O)OCc2ccccc2)C(C)C)C(Cc2ccccc2)C(O)C(O)C1Cc1ccccc1)C(=O)OCc1ccccc1 (stereo not drawn) [Example 1U], the Ki (HIV protease; Table 1a, read-out: Ki) was over 1 µM.

In the case of O=C1N(CC2CC2)C(C(O)Cc2ccccc2)[C@@H](O)[C@@H](Cc2ccccc2)N1CC1CC1 (stereo partly drawn) [Example 7Z], the Ki (HIV protease; Table 1e, read-out: Ki) is reported as 0.01 to 1 µM and the IC90 (HIV-1 (RF) in MT-2 cells; [3]) is reported as under 10 µg/mL.

For O=C1N(Cc2ccccn2)C(Cc2ccccc2)C(O)C(O)C(Cc2ccccc2)N1Cc1ccccn1 (stereo not drawn) [Example 1AR], the Ki (HIV protease; Ki) was 0.01 to 1 µM.

Work on CC(C)=CCN1C(=O)NC(Cc2ccccc2)C(O)C(O)C1Cc1ccccc1 (stereo not drawn) [Example 1AE] yielded a Ki (HIV protease; Table 1a, read-out: Ki) of under 0.01 µM.

CC(=O)OC1C(O)C(Cc2ccccc2)N(Cc2ccc3ccccc3c2)C(=O)N(Cc2ccc3ccccc3c2)C1Cc1ccccc1 (stereo not drawn) [Example 7K] gave a Ki (HIV protease; [4]) of 0.01 to 1 µM and an IC90 (HIV-1 (RF) in MT-2 cells; [2]) of over 100 µg/mL.

Compound O=C1N(CCCc2ccccc2)C(Cc2ccccc2)C(O)C(O)C(Cc2ccccc2)N1CCCc1ccccc1 (stereo not drawn) [Example 1AS] has a Ki (HIV protease; Table 1a, read-out: Ki) of 0.01 to 1 µM.

Compound COCCOCO[C@H]1[C@@H](Cc2ccccc2)N(Cc2ccc3ccccc3c2)C(=O)N(Cc2ccc3ccccc3c2)[C@@H]1C(F)Cc1ccccc1 (stereo partly drawn) [Example 8D] has a Ki (HIV protease; Table 1e, read-out: Ki) of 0.01 to 1 µM.

Work on O=C1N(Cc2ccncc2)C(Cc2ccccc2)C(O)C(O)C(Cc2ccccc2)N1Cc1ccncc1 (stereo not drawn) [Example 1AI] yielded a Ki (HIV protease; Table 1a, read-out: Ki) of 0.01 to 1 µM.

With N#Cc1cccc(CN2C(=O)N3C(Cc4ccccc4)C3C(O)C2Cc2ccccc2)c1 (stereo not drawn) [Example 21F] the Ki (HIV protease; Table 2j, read-out: Ki) was over 1 µM and the IC90 (HIV-1 (RF) in MT-2 cells; Table 2j) was “+ (+=>100 μg/mL)”.

O=C1N(Cc2cccc(OCc3ccccc3)c2)C(Cc2ccccc2)C(O)C(C(F)Cc2ccccc2)N1Cc1cccc(OCc2ccccc2)c1 (stereo not drawn) [Example 8E] gave a Ki (HIV protease; Table 1e, read-out: Ki) of 0.01 to 1 µM.

Work on CN1C(=O)N(Cc2ccccc2)C(Cc2ccccc2)C(O)C(O)C1Cc1ccccc1 (stereo not drawn) [Example 1AY] yielded a Ki (HIV protease; Table 1a, read-out: Ki) of 0.01 to 1 µM.

Compound CCCN1C(=O)N(CCC)C(Cc2ccccc2)C(O)C(O)C1Cc1ccccc1 (stereo not drawn) [Example 1V] has a Ki (HIV protease; Ki) of under 0.01 µM.

With O=C1N(Cc2ccccc2)C(Cc2ccccc2)C(O)C(O)C(Cc2ccccc2)N1Cc1ccccc1 (stereo not drawn) [Example 1I] the Ki (HIV protease; Ki) was over 1 µM.

In the case of CC(C)C(NCCN1C(=O)N(CCO)C(Cc2ccccc2)C(O)C(O)C1Cc1ccccc1)C(=O)OCc1ccccc1 (stereo not drawn) [Example 1L], the Ki (HIV protease; Table 1a, read-out: Ki) is reported as over 1 µM.

With CC(C)=CCN1C(=O)N(C)C(Cc2ccccc2)C(O)C(O)C1Cc1ccccc1 (stereo not drawn) [Example 2D] the Ki (HIV protease; Table 2A, read-out: Ki) was 0.01 to 1 µM and the Ki (HIV protease; second table headed Table 2A, read-out: Ki) was 0.01 to 1 µM.

With O=C1N(Cc2ccccc2)C(Cc2ccccc2)C(OCc2ccccc2)C2C(Cc3ccccc3)N12 (stereo not drawn) [Example 21C] the Ki (HIV protease; Table 2j, read-out: Ki) was 0.01 to 1 µM.

Compound C=CCN1C(=O)N(CC=C)C(Cc2ccccc2)C(O)C(O)C1Cc1ccccc1 (stereo not drawn) [Example 1D] has a Ki (HIV protease; Table 1a, read-out: Ki) of over 1 µM.

With CC(C)CCCC(C)CCN1C(=O)N(CCC(C)CCCC(C)C)C(Cc2ccccc2)C(O)C(O)C1Cc1ccccc1 (stereo not drawn) [Example 1N] the Ki (HIV protease; Table 1a, read-out: Ki) was 0.01 to 1 µM.

Work on COCCOCCOCCN1C(=O)NC(Cc2ccccc2)C(O)C(O)C1Cc1ccccc1 (stereo not drawn) [Example 1R] yielded a Ki (HIV protease; Table 1a, read-out: Ki) of over 1 µM.

O=C1N(CC=Cc2ccccc2)C(Cc2ccccc2)C(O)C(O)C(Cc2ccccc2)N1CC=Cc1ccccc1 (stereo not drawn) [Example 1AU] gave a Ki (HIV protease; Table 1a, read-out: Ki) of under 0.01 µM.

With O=C1N(Cc2ccccc2)C(Cc2ccccc2)C(O)C(O)C(Cc2ccccc2)N1Cc1cccc(O)c1 (stereo not drawn) [11I] the Ki ([1]; class symbols) was under 0.01 µM, the IC90 (HIV-1 (RF) in MT-2 cells; [6]) was under 10 µg/mL and the melting point was 189 to 193 °C.

C=CCN1C(=O)N(CC=C)C(Cc2ccccc2)C(O)C(O)C1Cc1ccccc1 (stereo not drawn) [Example 1H] gave a Ki (HIV protease; Table 1a, read-out: Ki) of over 1 µM.

In the case of Nc1cccc(CN2C(=O)N(Cc3cccc(-c4cc[nH]n4)c3)C(Cc3ccccc3)C(O)C(O)C2Cc2ccccc2)c1 (stereo not drawn) [Example 15CE], the Ki [1, 7] is reported as under 0.01 µM, the IC90 (HIV-1 (RF) in MT-2 cells; [8]) is reported as under 10 µg/mL and the melting point is reported as 136 to 138 °C.

CC(C)C(NCCN1C(=O)N(CCO)C(Cc2ccccc2)C(O)C(O)C1Cc1ccccc1)C(=O)OCc1ccccc1 (stereo not drawn) [Example 1T] gave a Ki (HIV protease; Table 1a, read-out: Ki) of 0.01 to 1 µM.

Compound O=C1N(Cc2ccc3cn[nH]c3c2)C(Cc2ccccc2)C(O)C(O)C(Cc2ccccc2)N1Cc1ccc2cn[nH]c2c1 (stereo not drawn) [15CY] has a Ki [1, 7] of under 0.01 µM, an IC90 (HIV-1 (RF) in MT-2 cells; [8]) of under 10 µg/mL and a melting point of 170 to 175 °C.

CC(C)CN1C(=O)N(CC(C)C)C(Cc2ccccc2)C(O)C(O)C1Cc1ccccc1 (stereo not drawn) [Example 1AO] gave a Ki (HIV protease; Table 1a, read-out: Ki) of 0.01 to 1 µM.

With O=C1N(Cc2cccc(O)c2)C(Cc2ccccc2)C(O)C(Cc2ccccc2)N1Cc1cccc(O)c1 (stereo not drawn) [Example 22A] the Ki (HIV protease; Table 2k, read-out: Ki) was 0.01 to 1 µM.

With O=C(NCc1ccccc1)Oc1cccc(CN2C(=O)N(Cc3cccc(OC(=O)NCc4ccccc4)c3)C(Cc3ccccc3)C(O)C(O)C2Cc2ccccc2)c1 (stereo not drawn) [Example 9L] the Ki ([1]; class symbols) was 0.01 to 1 µM, the IC90 (HIV-1 (RF) in MT-2 cells; [6]) was under 10 µg/mL and the melting point was 150 °C (dec.).

In the case of CC(C)=CCN1C(=O)N(C)C(Cc2ccccc2)C(O)C(O)C1Cc1ccccc1 (stereo not drawn) [Example 1BD], the Ki (HIV protease; Table 1a, read-out: Ki) is reported as 0.01 to 1 µM.

In the case of C=CCN1C(=O)N(CC=C)[C@H](Cc2ccccc2)[C@H](O)[C@H]1[C@H](O)Cc1ccccc1 [Example 8AA], the Ki (HIV protease; Table 1e, read-out: Ki) is reported as 0.01 to 1 µM.

Work on C=CCN1C(=O)N(CC=C)[C@H](Cc2ccccc2)[C@@H](O)[C@H](O)[C@H]1Cc1ccccc1 [Example 1G] yielded a Ki (HIV protease; Ki, Table 1a) of 0.01 to 1 µM.

For COCCOCCN1C(=O)N(CCOCCOC)C(Cc2ccccc2)C(O)C(O)C1Cc1ccccc1 (stereo not drawn) [Example 1J], the Ki (HIV protease; Table 1a, read-out: Ki) was over 1 µM.
